In one assay the test system is HBV. To be noted: read-out: IC50 against HBV; cited from earlier work.
The subject of a further assay is HCoV-NL63. Conditions: read-out: EC50 against HCoV-NL63; cited from earlier work.
A further assay relates to HCoV-OC43. To be noted: read-out: EC50 against HCoV-OC43; cited from earlier work.
A further assay has as its system MHV-A59. To be noted: read-out: EC50 against MHV-A59; cited from earlier work.
In the next assay the test system is MERS-CoV. Conditions: read-out: EC50 against MERS-CoV; cited from earlier work.
In assay [1] the test system is FMDV serotype A (NP05). Put plainly: microbe, parasite or virus in culture. The class given is cell-based, Foot-and-mouth disease virus.
The subject of another assay is FMDV 3Dpol. The class given is cell-based, Foot-and-mouth disease virus.
In assay [2] the test system is FMDV serotype A (NP05). Put plainly: microbe, parasite or virus in culture. The class given is cell-based. To be noted: Foot-and-mouth disease virus, BHK-21, read-out: Post-viral entry EC50.
Another assay concerns the target RdRp. To be noted: read-out: Binding affinity (RdRp inhibition using surface plasmon resonance assay); cited from earlier work. (Surface plasmon resonance follows binding to a sensor surface in real time, without labels.)
Assay [3] deals with FMDV serotype A (NP05). The class given is cell-based, Foot-and-mouth disease virus.
The subject of a further assay is SARS-CoV-2. To be noted: read-out: EC50 against SARS-CoV-2; cited from earlier work.
Assay [4] concerns FMDV serotype A (NP05). The class given is cell-based, Foot-and-mouth disease virus. This is another data set of the same source.
Assay [5] deals with FMDV serotype A (NP05). The class given is cell-based, Foot-and-mouth disease virus. The source holds these as a separate data set.
The subject of assay [6] is FMDV serotype A (NP05). Put plainly: microbe, parasite or virus in culture. The class given is cell-based. Conditions: Foot-and-mouth disease virus, BHK-21, read-out: Prophylactic EC50.
Assay [7] relates to FMDV serotype A (NP05). Nature of the assay: microbe, parasite or virus in culture. The class given is cell-based, Foot-and-mouth disease virus. This is another data set of the same source.
The next assay deals with FMDV serotype A. Conditions: cited from earlier work.
The test system of assay [8] is papain-like protease 2 protein. To be noted: read-out: IC50 (papain-like protease 2 protein inhibition); cited from earlier work.
For another assay, the system named is RSV. Conditions: cited from earlier work.
Another assay concerns Influenza virus type A. To be noted: cited from earlier work.
The next assay relates to Influenza virus H1N1. To be noted: cited from earlier work.
A further assay deals with CHIKV. Conditions: read-out: EC50 against CHIKV; cited from earlier work.
Assay [9] relates to HIV reverse transcriptase. To be noted: cited from earlier work.
The next assay has as its system enterovirus (EV) A71. Conditions: read-out: EC50 against enterovirus (EV) A71; cited from earlier work.
A further assay deals with ZIKV NS5 RNA polymerase. Conditions: read-out: IC50 (NS5 polymerase inhibition); cited from earlier work.
For a further assay, the system named is EBOV. To be noted: read-out: IC50 (viral-like particle entry); cited from earlier work.
The mark [10] stands for this setting: Foot-and-mouth disease virus, BHK-21, read-out: Pre-viral entry EC50.
Setting [11] is: Foot-and-mouth disease virus, BHK-21, read-out: Penetration EC50.

Data on 10 molecules can be found in PMC11445910 (International Journal of Veterinary Science and Medicine, 2024).

In brackets after ≈: the same amount, converted by molar mass. Where two headings read alike, the source gives them in different places.

As for `C[C@@H]1CC[C@@]2(NC1)O[C@H]1C[C@H]3[C@@H]4CC=C5C[C@@H](O[C@@H]6O[C@H](CO)[C@@H](O[C@@H]7O[C@@H](C)[C@H](O)[C@@H](O)[C@H]7O)[C@H](O)[C@H]6O[C@@H]6O[C@@H](C)[C@H](O)[C@@H](O)[C@H]6O)CC[C@]5(C)[C@H]4CC[C@]3(C)[C@H]1[C@@H]2C` [Solamargine (SLG), Solamargine], the IC50 with HBV was 2170 nM.
Turning to `C[C@H]1[C@H]2CC[C@H]3[C@@H]4CC=C5C[C@@H](N(C)C)CC[C@]5(C)[C@H]4CC[C@]23CN1C` [Conessine (CNS), Conessine], the EC50 was 10700 nM in the assay on HCoV-NL63, 2340 nM in the assay on HCoV-OC43, 11500 nM in the assay with MHV-A59 and 4980 nM with MERS-CoV.
Consider `CC[C@H]1CN2CCc3cc(OC)c(OC)cc3[C@@H]2C[C@@H]1C[C@H]1NCCc2cc(O)c(OC)cc21` [CPL, Cephaeline], for which the EC50 is 100 ± 100 nM in the assay with FMDV serotype A (NP05) [1] (setting [10]); 50 ± 130 nM in the assay on FMDV serotype A (NP05) [2]; 12.3 nM with SARS-CoV-2; 230 ± 650 nM with FMDV serotype A (NP05) [6]; 50 nM in the assay on FMDV serotype A (NP05) [7] (setting [11]). Also, the “Negative-stranded RNA production” value in the assay on FMDV 3Dpol was “affected the production of negative-stranded RNA”. Further, the Kd at RdRp is 8900 nM. The “Effect on viral attachment (binding of FMDV)” value in the assay with FMDV serotype A (NP05) [3] was “neither CPL nor EMT impeded the binding of FMDV”. Further, in the assay on FMDV serotype A (NP05) [4], the “% Virucidal effect (Virus titre reduction of log TCID50/ml), High dose” value came to 79.59%. Besides, in the assay on FMDV serotype A (NP05) [4], the “% Virucidal effect (Virus titre reduction of log TCID50/ml), Low dose” value is on record as 68.35%. In the assay on FMDV serotype A (NP05) [4], the “log viral titre after treatment, high dose” value was found to be 1.00. Further, the “log viral titre after treatment, low dose” value with FMDV serotype A (NP05) [4] is on record as 1.00. Besides, the “Viral load reduction (viral copy numbers)” value in the assay with FMDV serotype A (NP05) [5] was “dose-dependent manner”.
As for `NC(=O)c1ncc[nH]c1=O` [T-1105], in the assay with FMDV serotype A, the “IC50 against FMDV serotype A” value was 1.11 µg/mL (≈ 7.98 µM). In the assay on FMDV serotype A (read-out: IC50 against FMDV serotype A), the IC50 is 7970 nM.
Regarding `O=C1c2ccccc2-n2c1nc1ccccc1c2=O` [Tryptanthrin (TTT), Tryptanthrin], the IC50 in assay [8] was 60 nM.
In the case of Strictosamide [Strictosamide (STM)], the “IC50 against RSV” value with RSV is given as “IC50 of 25.68 µg/ml in MDCK cells IC50 of 12.50 µg/ml in Hep-2 cells”. In addition, the “IC50 against influenza virus type A” value in the assay with Influenza virus type A is “IC50 of 25.68 µg/ml in MDCK cells IC50 of 12.50 µg/ml in Hep-2 cells”.
Consider `C/C=C1/CN2[C@@H]3C[C@@]45c6ccccc6N[C@]4(O3)[C@@H]2C[C@@H]1[C@H]5C(=O)OC` [Picrinine (PCN), Picrinine], for which the “Reduction of haemagglutination titres” value with Influenza virus H1N1 is “Reduction of haemagglutination titres at 1/480; 12.5 mg/kg of Alstonia scholaris (L.) crude extract”.
As for `CCOC(=O)/C=C/[C@H](C[C@@H]1CCNC1=O)NC(=O)[C@@H](CC(=O)[C@@H](NC(=O)c1cc(C)on1)C(C)C)Cc1ccc(F)cc1` [RPV, Rupintrivir], the EC50 in the assay on FMDV serotype A (NP05) [1] (read-out: Pre-viral entry EC50) amounted to 10400 ± 1020 nM; in the assay on FMDV serotype A (NP05) [2], 3430 ± 540 nM; in the assay on FMDV serotype A (NP05) [7] (read-out: Penetration EC50), 2060 ± 310 nM.
In the case of `C[C@H]1CC[C@]2(NC1)O[C@H]1C[C@H]3[C@@H]4CC[C@H]5C[C@@H](O)CC[C@]5(C)[C@H]4CC[C@]3(C)[C@H]1[C@@H]2C` [Tomatidine (TMD), Tomatidine], in the assay on CHIKV, the EC50 is 1300 nM.
`CC[C@H]1CN2CCc3cc(OC)c(OC)cc3[C@@H]2C[C@@H]1C[C@H]1NCCc2cc(OC)c(OC)cc21` [EMT, Emetine, reference compound]: the EC50 with FMDV serotype A (NP05) [1] (setting [10]) is 130 nM; in the assay on HCoV-NL63, 1430 nM; in the assay with FMDV serotype A (NP05) [2], 240 ± 630 nM; in the assay on HCoV-OC43 it was 300 nM; with SARS-CoV-2 it was 7.71 nM; in the assay with MHV-A59, 120 nM. Moreover, the EC50 with enterovirus (EV) A71 was 40 nM; in the assay on MERS-CoV, 340 nM; in the assay with FMDV serotype A (NP05) [6], 640 ± 200 nM; with FMDV serotype A (NP05) [7] (setting [11]), 120 nM. The “Negative-stranded RNA production” value with FMDV 3Dpol was “affected the production of negative-stranded RNA”. In addition, the “Reduction of HIV reverse transcriptase activity” value in [9] is “approximately 50%”. The “Effect on viral attachment (binding of FMDV)” value with FMDV serotype A (NP05) [3] is listed as “neither CPL nor EMT impeded the binding of FMDV”. Further, the “% Virucidal effect (Virus titre reduction of log TCID50/ml), Low dose” value in the assay on FMDV serotype A (NP05) [4] was 32.28%. For the same molecule, the “log viral titre after treatment, high dose” value in the assay on FMDV serotype A (NP05) [4] is reported as 2.16. Further, the “log viral titre after treatment, low dose” value in the assay with FMDV serotype A (NP05) [4] is 2.14. The IC50 on ZIKV NS5 RNA polymerase was 121 nM; in the assay with EBOV it was 10200 nM. The “Viral load reduction (viral copy numbers)” value in the assay on FMDV serotype A (NP05) [5] is recorded as “dose-dependent manner”.

A word on the IC50: it is the concentration that inhibits the measured activity by half.
